From US8889881B2, “Compound having skin-whitening, anti-oxidizing and PPAR activities and medical use therefor” (Pusan National University Industry —University Cooperation …, priority 2011, dated 2014)

Assays:
[1] = test system: YPEN-1 cells (rat prostatic endothelial cell line); assay: In vitro ROS scavenging activity assay (DCFDA); type: cell-based; settings: cells pre-treated with 50 μM SIN-1 for 1 hour; DCFDA fluorescence; positive control trolox; FIGS. 1 and 2
Method: YPEN-1 cells (rat prostatic endothelial cell line) was obtained from American type culture collection (ATCC, Manassas, Va., USA), and the cells were cultured by using a dulbecco's modified eagle medium (DMEM, Nissui, Tokyo, Japan) containing 2 mM L-glutamine, […], 2.5 mg/L amphotericin B, and 5% inactivated fetal bovine serum (FBS). Also, the cells were maintained at a temperature of 37° C. in a humid atmosphere-like condition containing 5% CO2 and 95% air. […] The cells were sub-cultured in 100 mm plastic flask (Corning Co., New York, USA) every two days to maintain the cell line.
2′,7′-dichlorodihydrofluorescein diacetate (DCFDA) assay method according to a conventionally known method (Chem Res Toxicol. 5: 227-231, 1992) was used. In detail, 12.5 mM DCFDA dissolved in 99.9% ethanol and 600 U/ml esterase dissolved in tertiary distilled water were stored as a stock solution at a temperature of −20° C., and a 2′,7′-dichlorodihydrofluorescein (DCFH) solution prepared by mixing 10 mM DCFDA and 6 U/ml esterase was cultured at a temperature of 22° C. for 20 minutes, and then, refrigerated in a dark place before use. […] Vascular endothelial cells that were pre-treated with 50 μM 3-morpholinosydnonimine hydrochloride (SIN-1) for 1 hour were used as a reactive oxygen generation source.

| Structure (SMILES) | melting point [°C] | scavenging effects on ROS generated by vascular endothelial cells, compared with trolox [1] |
| --- | --- | --- |
| Oc1ccc(-c2nc3ccccc3s2)cc1O [Compound 14, 4-(benzo[d]thiazol-2-yl)benzene-1,2-diol] |  | as high scavenging effects on ROS generated by vascular endothelial cells as trolox |
| Oc1ccc(C2NCCS2)cc1O (centres unmarked) [Compound 72, 4-(Thiazolidin-2-yl)benzene-1,2-diol] |  | as high scavenging effects on ROS generated by vascular endothelial cells as trolox |
| COc1cc(C2NCCS2)cc(OC)c1O (centres unmarked) [Compound 80, 2,6-dimethoxy-4-(thiazolidin-2-yl)phenol] |  | as high scavenging effects on ROS generated by vascular endothelial cells as trolox |
| CC(C)(C)[Si](C)(C)Oc1ccc2c(-c3ccccc3)cc(=O)oc2c1O[Si](C)(C)C(C)(C)C [Compound 100, 7,8-bis(tert-butyldimethylsilyloxy)-4-phenyl-2H-chromen-2-one] |  | as high scavenging effects on ROS generated by vascular endothelial cells as trolox |

The next lines start with results.

| melting point [°C] | Structure (SMILES) | scavenging effects on ROS generated by vascular endothelial cells, compared with trolox [1] |
| --- | --- | --- |
| 195.5 to 196.8 | O=C(O)[C@@H]1CSC(c2ccc(O)c(O)c2)N1 (mixture of isomers) [Compound 2, (2R/S,4R)-2-(3,4-dihydroxyphenyl)thiazolidine-4-carboxylic acid] | as high scavenging effects on ROS generated by vascular endothelial cells as trolox |
| 116 to 118 | COC(=O)[C@@H]1CSC(c2ccc(O)c(O)c2)N1 (mixture of isomers) [Compound 104, (2R/S,4R)-methyl 2-(3,4-dihydroxyphenyl)thiazolidine-4-carboxylate] | as high scavenging effects on ROS generated by vascular endothelial cells as trolox |
| 267.3 to 269.4 | Oc1ccc(-c2nc3cc(C(F)(F)F)ccc3s2)cc1O [Compound 29, 4-(5-(trifluoromethyl)benzo[d]thiazol-2-yl)benzene-1,2-diol] | as high scavenging effects on ROS generated by vascular endothelial cells as trolox |
| 178 to 179 | O=C(O)[C@@H]1CSC(c2ccc(O)c(O)c2)=N1 [Compound 102, (4R)-2-(3,4-dihydroxyphenyl)-4,5-dihydrothiazole-4-carboxylic acid] | as high scavenging effects on ROS generated by vascular endothelial cells as trolox |
| 137 to 138 | COC(=O)c1csc(-c2ccc(OC(C)=O)c(OC(C)=O)c2)n1 [Compound 103, 4-(4-(Methoxycarbonyl)thiazol-2-yl)-1,2-phenylene diacetate] | as high scavenging effects on ROS generated by vascular endothelial cells as trolox |
